# Data: ChEMBL document CHEMBL1151361, “Soularubinone, a new antileukemic quassionoid from Soulamea tomentosa” (1981)
# Assays:
# Assay type in all cases: functional
# [1] = test system: P388; assay: In vivo antitumor activity against mouse P388 cells at 0.5 mg/kg relative to control
# [2] = test system: P388; assay: In vivo antitumor activity against mouse P388 cells at 2 mg/kg relative to control
# [3] = test system: P388; assay: In vivo antitumor activity against mouse P388 cells at 4 mg/kg relative to control
# [4] = test system: P388; assay: In vivo antitumor activity against mouse P388 cells at 9 mg/kg relative to control
compound,measurement,setting,value
CC[C@](C)(O)C(=O)O[C@H]1C(=O)O[C@@H]2C[C@H]3C(C)=CC(=O)[C@@H](O)[C@]3(C)[C@H]3[C@@]4(O)OC[C@]32[C@@H]1[C@@H](C)[C@H]4O [GLAUCARUBINONE],T/C,[1],231%
CCC(C)C(=O)O[C@H]1C(=O)O[C@@H]2C[C@H]3C(C)=CC(=O)[C@@H](O)[C@]3(C)[C@H]3[C@]4(O)OC[C@]32[C@@H]1[C@@H](C)[C@H]4O (some centres undefined) [AILANTHINONE],T/C,[2],148%
CC1=CC(=O)[C@@H](O)[C@]2(C)[C@H]3[C@]4(O)OC[C@]35[C@H]([C@@H](C)[C@H]4O)[C@@H](OC(=O)CC(C)(C)O)C(=O)O[C@@H]5C[C@@H]12 [SOULARUBINONE],T/C,[3],137%
CC(=O)O[C@H]1C(=O)O[C@@H]2C[C@H]3C(C)=CC(=O)[C@@H](O)[C@]3(C)[C@H]3[C@]4(O)OC[C@]32[C@@H]1[C@@H](C)[C@H]4O [HOLACANTHONE],T/C,[4],159%
